Data reported in PubChem BioAssay AID248 (DTP/NCI, 2004).
Where “and” joins values, the source holds several entries; their conditions need not be identical. Equal entries are not always repeated. Toxic doses and inconclusive results are not listed. Rule as the data show it: active = T/C of 150% or more; inactive = T/C below 125%.

Tested on: L1210 leukemia ip in BDF1 mice, survival T/C
Experiment: NCI In Vivo Anticancer Drug Screen. Data for tumor model L1210 Leukemia (intraperitoneal) in B6D2F1 (BDF1) mice
Conditions: endpoint: mean survival time, higher = longer survival
Method in brief: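 Antitumor effect is assessed in tumor-bearing animals. Survival in the compound arm is compared with a vehicle-dosed control arm and expressed as their quotient.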

[1] = dose: 200.0 mg/kg/injection, schedule: Q01DX001 (ip), vehicle: other
[2] = dose: 100.0 mg/kg/injection, schedule: Q01DX009 (ip), vehicle: saline with Tween-80
[3] = dose: 200.0 mg/kg/injection, schedule: Q01DX009 (ip), vehicle: saline with Tween-80
[4] = dose: 400.0 mg/kg/injection, schedule: Q01DX009 (ip), vehicle: saline with Tween-80
[5] = dose: 100.0 mg/kg/injection, schedule: Q01DX001 (ip), vehicle: carboxymethylcellulose (CMC)
[6] = dose: 100.0 mg/kg/injection, schedule: Q04DX003 (ip), vehicle: Klucel (hydroxypropylcellulose) (HPC)
[7] = dose: 200.0 mg/kg/injection, schedule: Q04DX003 (ip), vehicle: Klucel (hydroxypropylcellulose) (HPC)
[8] = dose: 400.0 mg/kg/injection, schedule: Q04DX003 (ip), vehicle: Klucel (hydroxypropylcellulose) (HPC)

Measured: T/C

OC(CI)C(O)C(O)C(O)CI (stereo unspecified)
inactive: dose: 50.0 mg/kg/injection, schedule: Q01DX009 (ip), vehicle: other 101 % of control | dose: 100.0 mg/kg/injection, schedule: Q01DX009 (ip), vehicle: other 101 % of control and 106 % of control | dose: 100.0 mg/kg/injection, schedule: Q## X024 (ip), vehicle: other 103 % of control | dose: 177.0 mg/kg/injection, schedule: Q01DX Z (ip), vehicle: methylcellulose (MC) 92 % of control | [1] 103 % of control and 101 % of control | dose: 200.0 mg/kg/injection, schedule: Q01DX009 (ip), vehicle: other 95 % of control and 111 % of control | dose: 200.0 mg/kg/injection, schedule: Q## X003 (ip), vehicle: other 109 % of control | dose: 200.0 mg/kg/injection, schedule: Q## X024 (ip), vehicle: other 111 % of control | dose: 267.0 mg/kg/injection, schedule: Q01DX Z (ip), vehicle: methylcellulose (MC) 108 % of control | dose: 400.0 mg/kg/injection, schedule: Q01DX001 (ip), vehicle: other 97 % of control and 111 % of control | dose: 400.0 mg/kg/injection, schedule: Q01DX009 (ip), vehicle: other 101 % of control | dose: 400.0 mg/kg/injection, schedule: Q01DX Z (ip), vehicle: methylcellulose (MC) 93 % of control | dose: 400.0 mg/kg/injection, schedule: Q## X003 (ip), vehicle: other 109 % of control | dose: 400.0 mg/kg/injection, schedule: Q## X024 (ip), vehicle: other 108 % of control | dose: 600.0 mg/kg/injection, schedule: Q01DX Z (ip), vehicle: methylcellulose (MC) 98 % of control | dose: 800.0 mg/kg/injection, schedule: Q01DX001 (ip), vehicle: other 105 % of control and 101 % of control | dose: 800.0 mg/kg/injection, schedule: Q## X003 (ip), vehicle: other 109 % of control | dose: 800.0 mg/kg/injection, schedule: Q## X024 (ip), vehicle: other 124 % of control

OC1CCOC1 (stereo unspecified)
inactive: [2] 98 % of control | [3] 97 % of control | [4] 98 % of control

CC(C)N(CCCCO)C(C)C
inactive: [5] 91 % of control

C[n+]1cc2c(CO)cc(CO)cc2c2ccccc21
inactive: dose: 75.0 mg/kg/injection, schedule: Q01DX001 (ip), vehicle: saline 97 % of control | dose: 150.0 mg/kg/injection, schedule: Q01DX001 (ip), vehicle: saline 95 % of control | dose: 300.0 mg/kg/injection, schedule: Q01DX001 (ip), vehicle: saline 97 % of control

CCCCC(CC)COP(=S)(S)OCC(CC)CCCC.[Sn] (stereo unspecified)
inactive: [6] 100 % of control | [7] 99 % of control | [8] 96 % of control

NC(=S)Nc1cccc(O)c1
inactive: dose: 100.0 mg/kg/injection, schedule: Q01DX009 (ip), vehicle: gum acacia 96 % of control | dose: 100.0 mg/kg/injection, schedule: Q04DX003 (ip), vehicle: gum acacia 92 % of control | dose: 200.0 mg/kg/injection, schedule: Q01DX009 (ip), vehicle: gum acacia 87 % of control | dose: 200.0 mg/kg/injection, schedule: Q04DX003 (ip), vehicle: gum acacia 92 % of control | dose: 400.0 mg/kg/injection, schedule: Q01DX009 (ip), vehicle: gum acacia 87 % of control | dose: 400.0 mg/kg/injection, schedule: Q04DX003 (ip), vehicle: gum acacia 92 % of control

CCCCCCCC(=O)Nc1cccc(OC(=O)NC)c1
inactive: dose: 100.0 mg/kg/injection, schedule: Q04DX003 (ip), vehicle: saline with Tween-80 98 % of control | dose: 200.0 mg/kg/injection, schedule: Q04DX003 (ip), vehicle: saline with Tween-80 94 % of control | dose: 400.0 mg/kg/injection, schedule: Q04DX003 (ip), vehicle: saline with Tween-80 96 % of control

N#CC1c2ccccc2CCN1C(=O)c1ccccc1 (stereo unspecified)
inactive: [5] 98 % of control | dose: 200.0 mg/kg/injection, schedule: Q01DX001 (ip), vehicle: carboxymethylcellulose (CMC) 98 % of control | dose: 400.0 mg/kg/injection, schedule: Q01DX001 (ip), vehicle: carboxymethylcellulose (CMC) 93 % of control

CN(C)/N=C1\C(=O)Nc2ccccc21
inactive: dose: 25.0 mg/kg/injection, schedule: Q01DX009 (ip), vehicle: Klucel (hydroxypropylcellulose) (HPC) 101 % of control | dose: 50.0 mg/kg/injection, schedule: Q01DX009 (ip), vehicle: Klucel (hydroxypropylcellulose) (HPC) 117 % of control | dose: 50.0 mg/kg/injection, schedule: Q04DX003 (ip), vehicle: Klucel (hydroxypropylcellulose) (HPC) 104 % of control | dose: 100.0 mg/kg/injection, schedule: Q01DX009 (ip), vehicle: Klucel (hydroxypropylcellulose) (HPC) 102 % of control and 103 % of control | [6] 106 % of control | [7] 97 % of control | [8] 103 % of control

O=[N+]([O-])c1cccc2c([N+](=O)[O-])cccc12
inactive: dose: 100.0 mg/kg/injection, schedule: Q01DX009 (ip), vehicle: saline sonified 107 % of control | [6] 95 % of control | dose: 200.0 mg/kg/injection, schedule: Q01DX009 (ip), vehicle: saline sonified 101 % of control | [7] 92 % of control | dose: 400.0 mg/kg/injection, schedule: Q01DX009 (ip), vehicle: saline sonified 109 % of control | [8] 90 % of control

Cc1nc2c(N)nn(C)c2nc1C
inactive: [2] 96 % of control | [3] 102 % of control

O=C(O)[C@@H]1C[C@H]1c1ccccc1
inactive: dose: 25.0 mg/kg/injection, schedule: Q04DX002 (ip), vehicle: saline + alcohol 100 % of control | dose: 50.0 mg/kg/injection, schedule: Q04DX002 (ip), vehicle: saline + alcohol 102 % of control | [2] 89 % of control | dose: 100.0 mg/kg/injection, schedule: Q04DX002 (ip), vehicle: saline + alcohol 109 % of control | dose: 100.0 mg/kg/injection, schedule: Q04DX002 (ip), vehicle: saline with Tween-80 114 % of control | [3] 87 % of control | [4] 92 % of control

NNC(=O)COc1ccccc1
inactive: dose: 100.0 mg/kg/injection, schedule: Q01DX001 (ip), vehicle: saline 106 % of control

CCCCSP(=S)(SCCCC)SCCCC
inactive: dose: 100.0 mg/kg/injection, schedule: Q01DX001 (ip), vehicle: Klucel (hydroxypropylcellulose) (HPC) 94 % of control | [2] 105 % of control | dose: 200.0 mg/kg/injection, schedule: Q01DX001 (ip), vehicle: Klucel (hydroxypropylcellulose) (HPC) 94 % of control | [3] 105 % of control | dose: 400.0 mg/kg/injection, schedule: Q01DX001 (ip), vehicle: Klucel (hydroxypropylcellulose) (HPC) 97 % of control | [4] 102 % of control

C=CCCCCCCCCC(=O)O (tested in a mixture with another compound)
inactive: dose: 10.0 mg/kg/injection, schedule: Q01DX001 (ip), vehicle: carboxymethylcellulose (CMC) 93 % of control | dose: 20.0 mg/kg/injection, schedule: Q01DX001 (ip), vehicle: carboxymethylcellulose (CMC) 104 % of control | dose: 40.0 mg/kg/injection, schedule: Q01DX001 (ip), vehicle: carboxymethylcellulose (CMC) 106 % of control | dose: 80.0 mg/kg/injection, schedule: Q01DX001 (ip), vehicle: carboxymethylcellulose (CMC) 101 % of control | [5] 97 % of control

Cc1ccc(S(C)=O)c(C)c1 (stereo unspecified)
inactive: dose: 100.0 mg/kg/injection, schedule: Q01DX009 (ip), vehicle: saline 97 % of control | dose: 200.0 mg/kg/injection, schedule: Q01DX009 (ip), vehicle: saline 96 % of control

CCCCN(CCCC)/N=N/c1nc[nH]c1C(=O)OC
inactive: dose: 100.0 mg/kg/injection, schedule: Q01DX001 (ip), vehicle: other 97 % of control | [1] 97 % of control

CC(C)CCN1C(c2ccccc2)=CN(Cc2ccccc2)C=C1c1ccccc1
inactive: dose: 100.0 mg/kg/injection, schedule: Q04DX002 (ip), vehicle: Klucel (hydroxypropylcellulose) (HPC) 100 % of control | dose: 200.0 mg/kg/injection, schedule: Q04DX002 (ip), vehicle: Klucel (hydroxypropylcellulose) (HPC) 92 % of control | dose: 400.0 mg/kg/injection, schedule: Q04DX002 (ip), vehicle: Klucel (hydroxypropylcellulose) (HPC) 95 % of control
